Experimental data: PubChem BioAssay AID248 (DTP/NCI, 2004)
Values joined by “and” are separate entries in the source; they are usually repeats but may differ in a detail not shown here. Identical values can stand only once. Toxic doses and inconclusive results are not listed. Rule as the data show it: active = T/C of 150% or more; inactive = T/C below 125%.

System: L1210 leukemia ip in BDF1 mice, survival T/C
Assay: NCI In Vivo Anticancer Drug Screen. Data for tumor model L1210 Leukemia (intraperitoneal) in B6D2F1 (BDF1) mice
Conditions: endpoint: mean survival time, higher = longer survival
Summary of the method: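 Tumor cells were implanted, animals were treated, and survival was followed. The result divides the treated measurement by the vehicle-control measurement.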

[1] = dose: 100.0 mg/kg/injection, schedule: Q01DX009 (ip), vehicle: saline
[2] = dose: 100.0 mg/kg/injection, schedule: Q04DX003 (ip), vehicle: saline
[3] = dose: 200.0 mg/kg/injection, schedule: Q01DX009 (ip), vehicle: saline
[4] = dose: 200.0 mg/kg/injection, schedule: Q04DX003 (ip), vehicle: saline
[5] = dose: 400.0 mg/kg/injection, schedule: Q01DX009 (ip), vehicle: saline
[6] = dose: 400.0 mg/kg/injection, schedule: Q04DX003 (ip), vehicle: saline
[7] = dose: 100.0 mg/kg/injection, schedule: Q04DX003 (ip), vehicle: saline with Tween-80
[8] = dose: 200.0 mg/kg/injection, schedule: Q04DX003 (ip), vehicle: saline with Tween-80
[9] = dose: 400.0 mg/kg/injection, schedule: Q04DX003 (ip), vehicle: saline with Tween-80
[10] = dose: 100.0 mg/kg/injection, schedule: Q04DX002 (ip), vehicle: saline with Tween-80
[11] = dose: 200.0 mg/kg/injection, schedule: Q04DX002 (ip), vehicle: saline with Tween-80
[12] = dose: 400.0 mg/kg/injection, schedule: Q04DX002 (ip), vehicle: saline with Tween-80
[13] = dose: 100.0 mg/kg/injection, schedule: Q01DX001 (ip), vehicle: saline
[14] = dose: 200.0 mg/kg/injection, schedule: Q01DX001 (ip), vehicle: saline
[15] = dose: 400.0 mg/kg/injection, schedule: Q01DX001 (ip), vehicle: saline
[16] = dose: 100.0 mg/kg/injection, schedule: Q01DX009 (ip), vehicle: Klucel (hydroxypropylcellulose) (HPC)
[17] = dose: 200.0 mg/kg/injection, schedule: Q01DX009 (ip), vehicle: Klucel (hydroxypropylcellulose) (HPC)
[18] = dose: 100.0 mg/kg/injection, schedule: Q04DX003 (ip), vehicle: Klucel (hydroxypropylcellulose) (HPC)
[19] = dose: 200.0 mg/kg/injection, schedule: Q04DX003 (ip), vehicle: Klucel (hydroxypropylcellulose) (HPC)
[20] = dose: 50.0 mg/kg/injection, schedule: Q01DX009 (ip), vehicle: Klucel (hydroxypropylcellulose) (HPC)

Measured: T/C

CCN(C)O
inactive: [1] 109 % of control | [2] 110 % of control | [3] 111 % of control | [4] 105 % of control | [5] 104 % of control | [6] 114 % of control

COC(=O)/C=C/c1ccc([N+](=O)[O-])cc1
inactive: [7] 94 % of control and 96 % of control | [8] 96 % of control and 97 % of control | [9] 92 % of control

N=C(N)N(CC(=O)O)Cc1ccccc1
inactive: [10] 101 % of control | [11] 114 % of control | [12] 104 % of control

COC(O)C(Cl)(Cl)Cl (stereo unspecified)
inactive: [13] 101 % of control | [1] 97 % of control | [2] 96 % of control | [14] 97 % of control | [3] 103 % of control | [4] 100 % of control | [15] 109 % of control | [5] 103 % of control | [6] 104 % of control

CCCCCCCCCCCCC(=O)N1CCCCCC1
inactive: dose: 100.0 mg/kg/injection, schedule: Q04DX002 (ip), vehicle: saline 102 % of control | dose: 200.0 mg/kg/injection, schedule: Q04DX002 (ip), vehicle: saline 102 % of control | dose: 400.0 mg/kg/injection, schedule: Q04DX002 (ip), vehicle: saline 91 % of control

CC(=O)OC1CCC(N)CC1 (stereo unspecified)
inactive: dose: 100.0 mg/kg/injection, schedule: Q01DX001 (ip), vehicle: other 98 % of control | dose: 200.0 mg/kg/injection, schedule: Q01DX001 (ip), vehicle: other 96 % of control | dose: 400.0 mg/kg/injection, schedule: Q01DX001 (ip), vehicle: other 96 % of control

CN(C)C(=S)[S][Pb]([c]1ccccc1)([c]1ccccc1)[c]1ccccc1
inactive: dose: 5.0 mg/kg/injection, schedule: Q01DX001 (ip), vehicle: steriod suspending solution 104 % of control | dose: 10.0 mg/kg/injection, schedule: Q01DX001 (ip), vehicle: steriod suspending solution 100 % of control | dose: 20.0 mg/kg/injection, schedule: Q01DX001 (ip), vehicle: steriod suspending solution 105 % of control | dose: 40.0 mg/kg/injection, schedule: Q01DX001 (ip), vehicle: steriod suspending solution 96 % of control | dose: 80.0 mg/kg/injection, schedule: Q01DX001 (ip), vehicle: steriod suspending solution 102 % of control

CN=C1N[N+]2=CCSCC2(C)S1 (stereo unspecified)
inactive: dose: 0.2 mg/kg/injection, schedule: Q03HX024 (ip), vehicle: saline 90 % of control | dose: 0.39 mg/kg/injection, schedule: Q03HX024 (ip), vehicle: saline 98 % of control | dose: 0.78 mg/kg/injection, schedule: Q03HX024 (ip), vehicle: saline 98 % of control | dose: 1.56 mg/kg/injection, schedule: Q03HX024 (ip), vehicle: saline 95 % of control | dose: 3.13 mg/kg/injection, schedule: Q03HX024 (ip), vehicle: saline 105 % of control

CC(C)(C)NS(=O)(=O)/C=C/c1ccccc1
inactive: dose: 50.0 mg/kg/injection, schedule: Q01DX009 (ip), vehicle: acetone 95 % of control | dose: 100.0 mg/kg/injection, schedule: Q01DX001 (ip), vehicle: acetone 101 % of control | dose: 100.0 mg/kg/injection, schedule: Q01DX009 (ip), vehicle: acetone 93 % of control | dose: 200.0 mg/kg/injection, schedule: Q01DX001 (ip), vehicle: acetone 102 % of control | dose: 200.0 mg/kg/injection, schedule: Q01DX009 (ip), vehicle: acetone 92 % of control | dose: 400.0 mg/kg/injection, schedule: Q01DX001 (ip), vehicle: acetone 96 % of control

Cc1ccc(C(C)(C)Cl)cc1O
inactive: dose: 100.0 mg/kg/injection, schedule: Q01DX009 (ip), vehicle: saline with Tween-80 93 % of control | [7] 96 % of control | dose: 200.0 mg/kg/injection, schedule: Q01DX009 (ip), vehicle: saline with Tween-80 93 % of control | [8] 102 % of control | dose: 400.0 mg/kg/injection, schedule: Q01DX009 (ip), vehicle: saline with Tween-80 98 % of control | [9] 102 % of control

CCOc1cc(/C=N/NC(=O)COCC(=O)N/N=C/c2ccc(O)c(OCC)c2)ccc1O
inactive: [16] 88 % of control | [17] 92 % of control | dose: 400.0 mg/kg/injection, schedule: Q01DX009 (ip), vehicle: Klucel (hydroxypropylcellulose) (HPC) 97 % of control

O=C1C2CCCCC2C(=O)N1C1=NC=NC2=NC=NC21 (stereo unspecified)
inactive: [7] 98 % of control | [8] 101 % of control | [9] 95 % of control

COC1C=CC23c4cc5c(cc4C(O)OC2CN(C)C3C1)OCO5 (stereo unspecified)
inactive: [13] 106 % of control

COC1(OC)CC2C(=O)CCCC21OC (stereo unspecified)
inactive: [10] 100 % of control | [11] 93 % of control | [12] 97 % of control

C(/C=C/c1ccccc1)=C\c1ccccc1
inactive: dose: 50.0 mg/kg/injection, schedule: Q01DX001 (ip), vehicle: saline 104 % of control | [13] 104 % of control | [14] 104 % of control | [15] 104 % of control

Nc1ccnnc1
inactive: dose: 50.0 mg/kg/injection, schedule: Q01DX009 (ip), vehicle: saline 106 % of control | [1] 101 % of control | [3] 104 % of control

CCCCCCC(C)OB(OC(C)CCCCCC)OC(C)CCCCCC (stereo unspecified)
inactive: [18] 103 % of control | [19] 95 % of control | dose: 400.0 mg/kg/injection, schedule: Q04DX003 (ip), vehicle: Klucel (hydroxypropylcellulose) (HPC) 93 % of control

Clc1ccc(C(Cl)(Cl)Cl)cc1Cl
inactive: [20] 110 % of control | [16] 103 % of control | [18] 106 % of control | [17] 98 % of control | [19] 106 % of control

O=c1[nH]cnc2nc(/N=N/SCCO)[nH]c12
inactive: dose: 44.4 mg/kg/injection, schedule: Q01DX Z (ip), vehicle: methylcellulose (MC) 101 % of control | dose: 66.6 mg/kg/injection, schedule: Q01DX Z (ip), vehicle: methylcellulose (MC) 108 % of control | dose: 100.0 mg/kg/injection, schedule: Q01DX Z (ip), vehicle: methylcellulose (MC) 116 % of control | dose: 150.0 mg/kg/injection, schedule: Q01DX Z (ip), vehicle: methylcellulose (MC) 121 % of control

CC(=O)Oc1ccc2nccc(C)c2c1
inactive: [13] 100 % of control | [14] 100 % of control | [15] 100 % of control

CCOC(=O)c1cnc(=S)[nH]c1N
inactive: [20] 102 % of control | dose: 50.0 mg/kg/injection, schedule: Q04DX003 (ip), vehicle: Klucel (hydroxypropylcellulose) (HPC) 95 % of control | [16] 96 % of control | [18] 95 % of control | [17] 93 % of control | [19] 97 % of control

COC1CCS(=O)(=O)C1 (stereo unspecified)
inactive: [13] 95 % of control | [1] 97 % of control | [14] 94 % of control | [3] 98 % of control | [15] 94 % of control | [5] 100 % of control

COc1ccccc1/C=C\C(=O)C1COCN1 (stereo unspecified)
inactive: dose: 75.0 mg/kg/injection, schedule: Q04DX003 (ip), vehicle: saline 105 % of control | dose: 150.0 mg/kg/injection, schedule: Q04DX003 (ip), vehicle: saline 100 % of control | dose: 300.0 mg/kg/injection, schedule: Q04DX003 (ip), vehicle: saline 102 % of control
